# Measurements: EP4567034A1 (Korea Institute of Science and Technology, priority 2022, dated 2024)
# System: blood lymphocyte count
# Assay: Decrease in blood lymphocyte count in normal rats after oral administration
# Assay type: in vivo, rat
# Conditions: 10 mg/kg for the compounds, within 5 hours after drug administration, percentage based on count before administration
# Method: In order to confirm the effect of administration of the four compounds selected from Experimental Example 1, Compounds 13, 62, 64, and 66, on the decrease in the blood lymphocyte count in rodents in vivo, blood was collected before and after compound administration, and the decrease in the blood lymphocyte count over time was measured using an automatic blood counter, and the results are shown in FIG. 1.
# Specifically, 5-week-old male rats (rat, wister, 160-180 g) were acclimated in a temperature- and humidity-controlled breeding room, and the four selected compounds were dissolved in 5% DMSO and 10% Kolliphor HS15 aqueous solution and orally administered at a dose of 10 mg/kg. Blood was collected from the tail vein with a syringe during inhalation anesthesia with 4% isoflurane and transferred to an EDTA-coated tube. The lymphocyte count was measured from the collected blood using an automatic blood counter. As a positive control group, rats administered with fingolimod, a known S1P1 receptor modulator, were used.
# As in the positive control group, fingolimod-administered group, it was confirmed that the group administered with the compounds of the Examples within 5 hours after drug administration induced a decrease in the lymphocyte count by 50% or less.
smiles,measurement,value
CCCCCCCCc1ccc(CCC(N)(CO)CO)cc1 [fingolimod],decrease in the lymphocyte count,≤ 50%
